Data published in a compilation of properties of binary mixtures (doi:10.1021/je060497d).

Test: xn = mol fraction of the nth substance listed
Conditions: 101 kPa

CC(C)O + COS(=O)(=O)[O-].Cn1cc[n+](C)c1
x1 = 1
Conditions | speed of sound [m/s]
293.15 K | 1156
303.15 K | 1121

CCCC[n+]1ccn(C)c1.F[P-](F)(F)(F)(F)F + CC(C)O
speed of sound [m/s]
Conditions | x1 = 0.0008 | x1 = 0.0011 | x2 = 0 | x2 = 0.0458 | x2 = 0.1055 | x2 = 0.1825 | x2 = 0.2864
293.15 K | 1156 | – | 1455 | – | 1441 | 1429 | 1409
298.15 K | 1139 | 1140 | 1443 | 1437 | 1429 | 1417 | 1397
303.15 K | – | 1122 | 1431 | 1425 | 1417 | 1405 | 1385

CCOC(C)=O + COS(=O)(=O)[O-].Cn1cc[n+](C)c1
x1 = 1
Conditions | speed of sound [m/s]
293.15 K | 1162
303.15 K | 1111

COS(=O)(=O)[O-].Cn1cc[n+](C)c1 + CCC(C)=O
speed of sound [m/s]
Conditions | x1 = 0.0006 | x1 = 0.0012 | x1 = 0.0029 | x2 = 0 | x2 = 0.0257 | x2 = 0.0716 | x2 = 0.2017 | x2 = 0.2926
293.15 K | 1214 | – | 1217 | 1826 | 1819 | 1803 | 1750 | 1703
298.15 K | 1194 | 1195 | – | – | – | 1791 | 1737 | 1689
303.15 K | – | 1165 | 1168 | 1801 | – | – | 1724 | 1676

CCOC(C)=O + CCCC[n+]1ccn(C)c1.F[P-](F)(F)(F)(F)F
Conditions | speed of sound [m/s]
293.15 K, x1 = 1 | 1162

COS(=O)(=O)[O-].Cn1cc[n+](C)c1 + CCOC(C)=O
speed of sound [m/s]
Conditions | x2 = 0 | x2 = 0.0509 | x2 = 0.0706 | x2 = 0.0928 | x2 = 0.1254 | x2 = 0.1451
293.15 K | 1826 | 1808 | – | 1792 | 1775 | 1765
298.15 K | 1813 | 1795 | 1789 | 1778 | 1765 | 1752
303.15 K | 1801 | 1782 | 1777 | 1764 | 1746 | –

CC(C)O + CCCC[n+]1ccn(C)c1.F[P-](F)(F)(F)(F)F
x1 = 1
Conditions | speed of sound [m/s]
293.15 K | 1156
303.15 K | 1121

CCCC[n+]1ccn(C)c1.F[P-](F)(F)(F)(F)F + CCC(C)=O
speed of sound [m/s]
Conditions | 293.15 K | 298.15 K | 303.15 K
x2 = 0 | 1455 | 1443 | 1431
x2 = 0.0509 | 1449 | 1438 | –
x2 = 0.0987 | 1444 | 1433 | 1419
x2 = 0.1907 | 1433 | 1421 | –
x2 = 0.2915 | 1418 | 1408 | 1393
x2 = 0.4057 | 1399 | 1390 | 1374
x2 = 0.5074 | 1380 | 1369 | 1349
x2 = 0.5956 | – | – | 1322
x2 = 0.7008 | – | – | 1292
x2 = 0.7919 | 1301 | 1286 | 1260
x2 = 0.8942 | 1265 | 1248 | 1220
x2 = 0.9467 | – | 1224 | 1195

CCCCCCCC[n+]1ccn(C)c1.F[P-](F)(F)(F)(F)F + CCOC(C)=O
speed of sound [m/s]
Conditions | 293.15 K | 298.15 K | 303.15 K
x2 = 0 | 1424 | 1408 | 1393
x2 = 0.0048 | – | 1408 | –
x2 = 0.0967 | 1408 | 1393 | 1379
x2 = 0.1981 | 1391 | 1377 | 1364
x2 = 0.2967 | 1375 | 1361 | 1348
x2 = 0.3954 | 1358 | 1344 | 1330
x2 = 0.5056 | 1337 | 1323 | –
x2 = 0.6061 | 1315 | 1299 | 1284
x2 = 0.7059 | 1288 | 1271 | 1253
x2 = 0.8004 | – | 1236 | 1218
x2 = 0.9036 | 1209 | 1189 | 1169
x2 = 0.9453 | 1189 | – | 1147

COS(=O)(=O)[O-].Cn1cc[n+](C)c1 + CC(C)O
speed of sound [m/s]
Conditions | 293.15 K | 298.15 K | 303.15 K
x2 = 0 | 1826 | 1813 | –
x2 = 0.0498 | 1807 | 1797 | 1785
x2 = 0.0958 | 1791 | 1777 | –
x2 = 0.2008 | – | 1729 | 1720
x2 = 0.3063 | 1684 | 1670 | 1662
x2 = 0.4013 | 1611 | 1605 | 1602
x2 = 0.4957 | 1525 | 1534 | 1534
x2 = 0.5945 | – | 1444 | 1459
x2 = 0.7039 | 1338 | 1352 | 1370
x2 = 0.8013 | 1269 | 1271 | 1292
x2 = 0.9019 | – | 1198 | 1207
x2 = 0.951 | – | 1167 | 1166

CCOC(C)=O + CCCCCCCC[n+]1ccn(C)c1.F[P-](F)(F)(F)(F)F
x1 = 1
Conditions | speed of sound [m/s]
298.15 K | 1141
303.15 K | 1111

CCCCCC[n+]1ccn(C)c1.F[P-](F)(F)(F)(F)F + CC(C)O
speed of sound [m/s]
Conditions | x1 = 0.0011 | x1 = 0.0019 | x1 = 0.0024 | x2 = 0 | x2 = 0.0067 | x2 = 0.074 | x2 = 0.189 | x2 = 0.3042 | x2 = 0.3877 | x2 = 0.5107
293.15 K | 1157 | – | – | – | 1437 | 1427 | 1408 | 1388 | – | –
298.15 K | 1140 | 1141 | 1141 | 1424 | 1423 | 1413 | 1396 | 1375 | – | 1325
303.15 K | 1122 | 1124 | 1124 | 1411 | 1410 | – | 1383 | 1363 | 1346 | 1313

CCC(C)=O + CCCC[n+]1ccn(C)c1.F[P-](F)(F)(F)(F)F
Conditions | speed of sound [m/s]
303.15 K, x1 = 1 | 1163

CCCC[n+]1ccn(C)c1.F[P-](F)(F)(F)(F)F + CCOC(C)=O
speed of sound [m/s]
Conditions | 293.15 K | 298.15 K | 303.15 K
x2 = 0 | 1455 | 1443 | 1431
x2 = 0.0501 | 1447 | 1436 | 1420
x2 = 0.1003 | 1438 | 1427 | –
x2 = 0.1854 | 1421 | 1412 | 1401
x2 = 0.3 | – | 1391 | 1378
x2 = 0.4064 | 1379 | 1366 | 1354
x2 = 0.5117 | 1350 | – | –
x2 = 0.6032 | 1319 | 1310 | 1291
x2 = 0.7061 | 1280 | – | –
x2 = 0.802 | 1240 | 1228 | 1207
x2 = 0.9021 | – | 1180 | 1160
x2 = 0.948 | – | 1162 | 1137

CCC(C)=O + COS(=O)(=O)[O-].Cn1cc[n+](C)c1
x1 = 1
Conditions | speed of sound [m/s]
293.15 K | 1212
303.15 K | 1163
